Reference: patent publication US20040043959A1, “Combination therapies for treating methylthioadenosine phosphorylase deficient cells” (priority 2002, published 2004)

Legend:
[1] = target: T1, human membrane folate-binding protein (mFBP) (Homo sapiens, UniProt P15328); test: competitive binding assay against 3H-folic acid with mFBP prepared from KB cells
T1 construct: mFBP prepared from cultured KB cells (human nasopharyngeal carcinoma cells); endogenous in cells
Text: The dissociation constant (Kd) of the preferred inhibitors of the present invention for human membrane folate-binding protein (mFBP) can be determined in a competitive binding assay using mFBP prepared from cultured KB cells (human nasopharyngeal carcinoma cells) as disclosed in U.S. Pat. No. 5,646,141, the disclosures of which is hereby incorporated by reference in its entirety.
Human membrane folate binding protein can be obtained from KB cells by methods well known in the art. KB cells are washed, sonicated for cell lysis and centrifuged to form pelleted cells. The pellet can then be stripped of endogenous bound folate by resuspension in acidic buffer (KH2PO4—KOH and 2-mercaptoethanol) and centrifuged again. The pellet is then resuspended and the protein content quantitated using the Bradford method with bovine serum albumin (BSA) as standard.
Disassociation constants are determined by allowing, the test inhibitor to compete against ^3H-folic acid for binding to mFBP. Reaction mixtures are designed to generally contain mFBP, ^3H-folic acid, and various concentrations of the subject test inhibitor in acidic buffer (KH2PO4—KOH and 2-mercaptoethanol). The competition reaction is typically conducted at 25°. Because of the slow nature of release of bound ^3H-folic acid, the test inhibitor may be prebound prior to addition of bound ^3H-folic acid, after which the reaction should be allowed to equilibriate. The full reaction mixtures then should be drawn through nitrocellulose filters to isolate the cell membranes with bound ^3H-folic acid. The trapped mFBP are then washed and measured by scintillation counting. The data can then be nonlinearly fitted as described above in determining Ki. The mFBP Kd for ^3H-folic acid, used for calculating the competitor Kd, can be obtained by directly titrating mFBP with ^3H-folate. The mFBP Kd can then be used to calculate the competitor Kd by nonlinear fitting of the data to an equation for tight-binding Kc. Table 1 below provides the Kd values of several GARFT inhibitors using the assay described above.

[2] = tested on: MTAP-competent NCI-H460 cells; test: MTT growth inhibition by Compound 1 or 3 with and without MTA; assay type: cell-based, human; conditions: FIG. 7
Description: Cells were plated in columns 2-12 of a 96-well microtiter plate, with column 2 designated as the vehicle control. The same volume of medium was added to column 1. Column 1 was designated as the media control. After a 4-hour incubation, the cells were treated with Compound 7, with or without a non-growth inhibitory concentration of MTA, in quadruplicate wells. […] MTT (4,5-dimethylthiazol-2-yl)-2,5-diphenyl tetrazolium bromide; Sigma, St. Louis, Mo.) was added to a final concentration of 0.25-1 mg/ml in each well, and the plates were incubated for 4 hours. The liquid was removed from each well. DMSO was added to each well, then the plates were vortexed slowly in the dark for 7-20 minutes. The formazin product was quantified spectrophotometrically at […] on a Molecular Devices Vmax™ kinetic microplate reader.

Human MTAP = target: T2, Human MTAP (Homo sapiens, UniProt Q13126); test: MTAP substrate assay, coupled spectrophotometric (adenine, xanthine oxidase); assay type: biochemical; conditions: 2 nM MTAP; for activity at 50 µM: 10 min, read-out: MT-A—50: initial velocity as a percentage of the initial velocity with MTA as substrate; for MT-A—10: initial velocity as a percentage of the initial velocity with MTA as substrate: compound 10 uM, relative to MTA at 10 uM
T2 construct: six-histidine tag (His6) (N); made in house; host or cells: E. coli BL21 DE3
T2 sequence (Q13126 1-283): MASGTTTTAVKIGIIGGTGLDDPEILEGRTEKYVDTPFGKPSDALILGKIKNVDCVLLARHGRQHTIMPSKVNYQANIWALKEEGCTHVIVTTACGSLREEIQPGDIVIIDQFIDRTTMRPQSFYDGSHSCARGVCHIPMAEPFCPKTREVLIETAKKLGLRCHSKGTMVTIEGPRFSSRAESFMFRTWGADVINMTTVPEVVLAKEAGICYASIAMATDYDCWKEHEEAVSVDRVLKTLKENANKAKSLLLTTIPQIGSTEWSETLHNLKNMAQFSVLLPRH
Procedure, shortened: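 Detection was xanthine oxidase-coupled (0.8 units/ml), reading adenine-derived absorbance at 305 nm over 10 min in potassium phosphate/DTT buffer at 37° C, with N-His6 enzyme purified from E. coli.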

[3] = compound 50 uM, relative to MTA at 50 uM

T1 sequence (P15328 25-234): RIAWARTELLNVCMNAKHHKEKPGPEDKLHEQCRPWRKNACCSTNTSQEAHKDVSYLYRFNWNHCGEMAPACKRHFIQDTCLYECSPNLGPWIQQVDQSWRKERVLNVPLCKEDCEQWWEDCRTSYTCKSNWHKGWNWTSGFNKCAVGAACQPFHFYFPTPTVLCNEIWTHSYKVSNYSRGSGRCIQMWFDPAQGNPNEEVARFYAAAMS

Kd [1] [nM]	activity at 50 µM (Human MTAP; [3]) [%]	MT-A—10: initial velocity as a percentage of the initial velocity with MTA as substrate (Human MTAP) [%]	MT-A—50: initial velocity as a percentage of the initial velocity with MTA as substrate (Human MTAP; [3]) [%]	Compound	factor by which MTA reduced the growth inhibitory activity [2]
0.0042				Cc1cc(C(=O)N[C@@H](CCC(=O)O)C(=O)O)sc1CC[C@H]1CNc2nc(N)[nH]c(=O)c2S1 (single isomer, unassigned) [Compound 3]	greater than 5
	22.5	10		Nc1ncnc2c1ncn2[C@@H]1O[C@H](CSc2nc3ccc(Cl)cc3o2)[C@@H](O)[C@H]1O [2(G)(153), (2R, 3R, 4S, 5S)-2-(6-amino-9H-purin-9-yl)-5-{[(6-chloro-1,3-benz-oxazol-2-yl)thio]methyl}tetrahydrofuran-3,4-diol]	
	26	39		Cc1cc(C)nc(SC[C@H]2O[C@@H](n3cnc4c(N)ncnc43)[C@H](O)[C@@H]2O)n1 [2(G)(154), (2R, 3R, 4S, 5S)-2-(6-amino-9H-purin-9-yl)-5-{[(4,6-dimethyl-pyrimidin-2-yl)thio]methyl}tetrahydrofuran-3,4-diol]	
	39	22.5		Cc1cnc(SC[C@H]2O[C@@H](n3cnc4c(N)ncnc43)[C@H](O)[C@@H]2O)nc1O [2(G)(155), (2R, 3R, 4S, 5S)-2-(6-amino-9H-purin-9-yl)-5-{[(4-hydroxy-5-methyl-pyrimidin-2-yl)thio]-methyl}tetrahydrofuran-3,4-diol]	
	33	6		CC(SC[C@H]1O[C@@H](n2cnc3c(N)ncnc32)[C@H](O)[C@@H]1O)c1ccccc1 (stereo partly drawn) [2(G)(156), (2R, 3R, 4S, 5S)-2-(6-amino-9H-purin-9-yl)-5-{[(1-phenylethyl)thio]-methyl}tetrahydrofuran-3,4-diol]	
	15.5	32.5		Nc1ncnc2c1ncn2[C@@H]1O[C@H](CSc2ccccc2CO)[C@@H](O)[C@H]1O [2(G)(157), (2R, 3R, 4S, 5S)-2-(6-amino-9H-purin-9-yl)-5-({[2-(hydroxymethyl)-phenyl]thio}methyl)tetra-hydrofuran-3,4-diol]	
	43.5	7		Cc1nc(SC[C@H]2O[C@@H](n3cnc4c(N)ncnc43)[C@H](O)[C@@H]2O)nc(O)c1C [2(G)(158), (2R, 3R, 4S, 5S)-2-(6-amino-9H-purin-9-yl)-5-{[(4-hydroxy-5,6-dimethylpyrimidin-2-yl)-thio]methyl}tetrahydro-furan-3,4-diol]	
	28	7.5		NC(=O)CSC[C@H]1O[C@@H](n2cnc3c(N)ncnc32)[C@H](O)[C@@H]1O [2(G)(159), 2-({[(2S, 3S, 4R, 5R)-5-(6-amino-9H-purin-9-yl)-3,4-dihydroxytetrahydro-furan-2-yl)methyl}thio)-acetamide]	
	17	12		Nc1ncnc2c1ncn2[C@@H]1O[C@H](CSc2nccn2Cc2ccccc2)[C@@H](O)[C@H]1O [2(G)(160), (2R, 3R, 4S, 5S)-2-(6-amino-9H-purin-9-yl)-5-{[(1-benzyl-1H-imidazol-2-yl)thio]methyl}tetra-hydrofuran-3,4-diol]	
	28	14.5		CNC(=O)c1ccccc1SC[C@H]1O[C@@H](n2cnc3c(N)ncnc32)[C@H](O)[C@@H]1O [2(G)(161), 2-({[(2S, 3S, 4R, 5R)-5-(6-amino-9H-purin-9-yl)-3,4-dihydroxytetrahydro-furan-2-yl]methyl}thio)-N-methylbenzamide]	
	39.5	29		CCCc1cc(O)nc(SC[C@H]2O[C@@H](n3cnc4c(N)ncnc43)[C@H](O)[C@@H]2O)n1 [2(G)(162), (2R, 3R, 4S, 5S)-2-(6-amino-9H-purin-9-yl)-5-{[(4-hydroxy-6-propylpyrimidin-2-yl)-thio]methyl}tetrahydro-furan-3,4-diol]	
	26.5	12		Nc1ncnc2c1ncn2[C@@H]1O[C@H](CSc2nc3cc(Cl)ccc3o2)[C@@H](O)[C@H]1O [2(G)(163), (2R, 3R, 4S, 5S)-2-(6-amino-9H-purin-9-yl)-5-{[(5-chloro-1,3-benz-oxazol-2-yl)thio]methyl}-tetrahydrofuran-3,4-diol]	
	29	13.5		COC(=O)c1cnc(SC[C@H]2O[C@@H](n3cnc4c(N)ncnc43)[C@H](O)[C@@H]2O)n1C [2(G)(164), Methyl 2-({[(2S, 3S, 4R, 5R)-5-(6-amino-9H-purin-9-yl)-3,4-dihydroxy-tetrahydrofuran-2-yl]methyl}thio)-1-methyl-1H-imidazole-5-carboxylate]	
	33.5	25		CC(C)(C)c1cc(O)nc(SC[C@H]2O[C@@H](n3cnc4c(N)ncnc43)[C@H](O)[C@@H]2O)n1 [2(G)(165), (2R, 3R, 4S, 5S)-2-(6-amino-9H-purin-9-yl)-5-{[(4-tert-butyl-6-hydroxypyrimidin-2-yl)thio]methyl}tetrahydro-furan-3,4-diol]	
136				Cc1cc(C(=O)N[C@@H](CCC(=O)O)C(=O)O)sc1CCCSc1c(N)nc(N)[nH]c1=O [Compound 2]	
1				Cc1cc(C(=O)N[C@@H](CCC(=O)O)C(=O)O)sc1CC[C@@H]1CNc2nc(N)[nH]c(=O)c2S1 [Compound 4, 4-[2-(2-Amino-4-oxo-4,6,7,8-tetraydro-3H-pyrimido[5,4-b][1,4]thiazin-6-yl)-(R)-ethyl]-3-methyl-2-thienoyl-5-amino-L-glutamic acid]	
0.71				Cc1cc(C(=O)N[C@@H](CCC(=O)O)C(=O)O)sc1CC[C@H]1CNc2nc(N)[nH]c(=O)c2S1 [Compound 5, 4-[2-(2-Amino-4-oxo-4,6,7,8-tetrahydro-3H-pyrimido[5,4-b][1,4]thiazin-6-yl)-(S)-ethyl]-3-methyl-2-thienoyl-5-amino-L-glutamic acid]	
		5	2	(2R, 3R, 4S, 5S)-2-(6- amino-9H-purin-9-yl)-5- {[(5-chloro-1H- yl)thio]methyl}tetrahydro- furan-3,4-diol [2(G)(5)]	
